Experimental data reported in patent US20210070735A1, “RIP1 INHIBITORY COMPOUNDS AND METHODS FOR MAKING AND USING THE SAME” (Rigel Pharmaceuticals, Inc., priority 2019, published 2021).

What was measured:
RIPK1 = target: T1, RIPK1 (Homo sapiens, UniProt Q13546); experiment: RIPK1 ADP-Glo biochemical kinase assay; conditions: 30 min at 30° C.
T1 sequence (Q13546 1-671): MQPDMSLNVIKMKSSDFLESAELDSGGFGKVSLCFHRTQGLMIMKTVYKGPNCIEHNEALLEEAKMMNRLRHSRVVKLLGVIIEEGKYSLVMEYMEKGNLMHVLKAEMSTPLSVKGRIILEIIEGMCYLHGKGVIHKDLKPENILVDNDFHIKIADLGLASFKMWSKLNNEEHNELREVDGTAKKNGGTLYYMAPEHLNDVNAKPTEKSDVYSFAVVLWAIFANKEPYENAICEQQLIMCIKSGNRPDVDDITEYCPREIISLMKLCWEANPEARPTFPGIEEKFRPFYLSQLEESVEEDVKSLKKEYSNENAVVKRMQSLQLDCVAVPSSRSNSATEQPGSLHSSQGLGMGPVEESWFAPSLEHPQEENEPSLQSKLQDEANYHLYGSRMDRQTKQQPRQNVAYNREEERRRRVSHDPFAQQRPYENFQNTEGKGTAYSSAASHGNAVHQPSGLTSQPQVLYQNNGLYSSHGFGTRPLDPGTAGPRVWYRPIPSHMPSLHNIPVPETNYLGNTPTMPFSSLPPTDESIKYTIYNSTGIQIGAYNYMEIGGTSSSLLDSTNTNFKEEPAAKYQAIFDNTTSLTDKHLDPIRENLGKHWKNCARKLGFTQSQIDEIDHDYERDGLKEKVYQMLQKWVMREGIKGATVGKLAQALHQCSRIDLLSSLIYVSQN
Description: The final reaction volume was 5.0 μl.
Adding 5 μl of ADP-Glo™ terminated the reaction.

murine RIP1 = target: T2, murine RIP1 (Mus musculus, UniProt Q60855); experiment: L929 cell necroptosis assay (TNFa + zVAD, CellTiter-Glo); assay type: cell-based
T2 construct: U937 and L929 cells were obtained from the American Type Culture Collection; host or cells: L929
T2 sequence (Q60855 1-656): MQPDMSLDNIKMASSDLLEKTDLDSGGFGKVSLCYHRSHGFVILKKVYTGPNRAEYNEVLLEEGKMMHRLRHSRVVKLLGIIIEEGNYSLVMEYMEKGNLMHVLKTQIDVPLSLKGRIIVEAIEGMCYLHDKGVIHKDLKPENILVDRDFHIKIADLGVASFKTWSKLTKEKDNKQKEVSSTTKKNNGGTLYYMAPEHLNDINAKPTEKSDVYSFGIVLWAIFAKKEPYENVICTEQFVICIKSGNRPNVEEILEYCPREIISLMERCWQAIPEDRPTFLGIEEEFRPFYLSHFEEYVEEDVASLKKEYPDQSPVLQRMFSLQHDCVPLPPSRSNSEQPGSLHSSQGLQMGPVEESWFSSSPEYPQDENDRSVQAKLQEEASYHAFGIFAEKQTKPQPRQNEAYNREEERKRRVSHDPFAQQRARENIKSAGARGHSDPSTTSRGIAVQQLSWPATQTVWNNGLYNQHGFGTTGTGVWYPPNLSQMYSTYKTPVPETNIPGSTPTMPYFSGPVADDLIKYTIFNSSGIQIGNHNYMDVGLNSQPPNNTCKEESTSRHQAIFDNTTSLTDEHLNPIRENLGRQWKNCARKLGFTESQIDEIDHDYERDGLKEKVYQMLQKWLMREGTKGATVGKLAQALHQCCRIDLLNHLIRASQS
Description: (§1) In this example, U937 and L929 cells were exposed to compounds of the present disclosure and a cell necroptosis assay was conducted to evaluate the compounds' activity against human RIP1 and murine RIP1.
(§2) U937 and L929 cells were obtained from the American Type Culture Collection (Manassa, Va., USA). Both cells were maintained in logarithmic growth phase in complete RPMI 1640 media (Sigma, ST Louis, Mo., USA) supplemented with 10% fetal bovine serum (Sigma, ST Louis, Mo., USA) at 37° C. with 5% CO2. For necroptosis assay, L929 cells were plated for 18 h in 100 µL/well medium at 10K cells/well in Costar 96-well black clear-bottom plates (Fisher Scientific, Hampton, N.H., USA); U937 cells were plated on the day of the assay in 50 µL/well medium containing 60 uM zVAD-fmk (Lonza, Basel, Switzerland) at 50K cells/well. Medium from L929 cells were removed from the 96-well plates and replaced with 50 µL/well new medium containing 40 uM zVAD-fmk. Each compound of the present disclosure evaluated in this example was serially diluted in DMSO from 2.5 mM in 4-fold dilutions, and then diluted 1:125 in complete medium. 50 µL/well 2× of the compound was then added to the cells in the plates. The cells were pre-incubated with the compound for 1 hour at 37° C. with 5% CO2 and before addition of 10 µL/well 11×TNFa (Peprotech, Rocky Hill, N.J., USA) to give a final concentration of 2 ng/mL for TNFa. The relative amount of necroptosis cells was determined by luminescent using a Wallac Victor2 Luminometer (PerkinElmer, Waltham, Mass., USA) and a CellTiter-Glo® Luminescent Cell Viability Reagent Assay (Promega, Madison, Wis., USA) added per manufacturer instructions after 18 hours of TNFa stimulation at 37° C. with 5% CO2.Results from this example are summarized in Table 2. This example establishes that embodiments of the compounds described herein have unexpectedly potent activity against human RIP1 and murine RIP1, which allows their assessment in in vivo mouse models of disease.

human RIP1 = target: T3, human RIP1 (Homo sapiens, UniProt Q13546); experiment: U937 cell necroptosis assay (TNFa + zVAD, CellTiter-Glo); assay type: cell-based; conditions: U937 Zvad TNF CTG Recovery, U937 cells, TNFa 2 ng/mL + zVAD-fmk, 18 hours
T3 construct: U937 and L929 cells were obtained from the American Type Culture Collection; host or cells: U937
T3 sequence (Q13546 1-671): T1 sequence (Q13546 1-671)
Description: as §1, §2

| SMILES | IC50 (RIPK1) | IC50 (murine RIP1) | IC50 (human RIP1) |
| --- | --- | --- | --- |
| CN1C(=O)[C@@H](NC(=O)c2n[nH]c(Cc3ccccc3)n2)CCc2ccc(N3CC4(CCOCC4)C3)cc21 [Compound I-17, (S)-5-Benzyl-N-(1-methyl-2-oxo-8-(7-oxa-2-azaspiro[3.5]nonan-2-yl)-2,3,4,5-tetrahydro-1H-benzo[b]azepin-3-yl)-1H-1,2,4-triazole-3-carboxamide] | 36.6 nM | 229 nM | 3.9 nM |
| CN1C(=O)[C@@H](NC(=O)c2n[nH]c(Cc3ccccc3)n2)CCc2ccc(C#CC(C)(C)C)cc21 [Compound I-21, (S)-5-Benzyl-N-(8-(3,3-dimethylbut-1-yn-1-yl)-1-methyl-2-oxo-2,3,4,5-tetrahydro-1H-benzo[b]azepin-3-yl)-1H-1,2,4-triazole-3-carboxamide] | 62.4 nM | 25.3 nM | 13.4 nM |
| CN1C(=O)C(NC(=O)c2n[nH]c(Cc3ccccc3)n2)CCc2ccc(C#Cc3ccccn3)cc21 (racemic) [Compound I-20, (±)-5-Benzyl-N-(1-methyl-2-oxo-8-(pyridin-2-ylethynyl)-2,3,4,5-tetrahydro-1H-benzo[b]azepin-3-yl)-1H-1,2,4-triazole-3-carboxamide] | 37 nM | 8.5 nM | 3.8 nM |
| CN1C(=O)[C@@H](NC(=O)c2cc(Oc3ccccc3)ccn2)CCc2ccc(C#CC3(O)COC3)cc21 [Compound I-22, (S)—N-(8-((3-hydroxyoxetan-3-yl)ethynyl)-1-methyl-2-oxo-2,3,4,5-tetrahydro-1H-benzo[b]azepin-3-yl)-4-phenoxypicolinamide] | 34.2 nM | 8.2 nM | 0.8 nM |
| CN1C(=O)C(NC(=O)c2n[nH]c(Cc3ccccc3)n2)CCc2ccc(C#CC3(O)COC3)cc21 (racemic) [Compound I-16, (±)-5-Benzyl-N-(8-((3-hydroxyoxetan-3-yl)ethynyl)-1-methyl-2-oxo-2,3,4,5-tetrahydro-1H-benzo[b]azepin-3-yl)-1H-1,2,4-triazole-3-carboxamide] | 229 nM | 150 nM | 8.4 nM |
| O=C(NC1CCc2ccc(N3CC4(CCOCC4)C3)cc2NC1=O)c1n[nH]c(Cc2ccccc2)n1 (racemic) [Compound I-9, (±)-5-Benzyl-N-(2-oxo-8-(7-oxa-2-azaspiro[3.5]nonan-2-yl)-2,3,4,5-tetrahydro-1H-benzo[b]azepin-3-yl)-1H-1,2,4-triazole-3-carboxamide] | 414 nM | 30800 nM | 13.1 nM |
| [2H]C([2H])([2H])N1C(=O)C(NC(=O)c2n[nH]c(Cc3ccccc3)n2)CCc2ccc(C#CC(C)(C)O)cc21 (racemic) [Compound I-14, (±)-5-Benzyl-N-(8-(3-hydroxy-3-methylbut-1-yn-1-yl)-1-(methyl-d)-2-oxo-2,3,4,5-tetrahydro-1H-benzo[b]azepin-3-yl)-1H-1,2,4-triazole-3-carboxamide] | 129 nM | 43.3 nM | 7.3 nM |
| CN1C(=O)C(NC(=O)c2n[nH]c(Cc3ccccc3)n2)CCc2ccc(C#Cc3ccncc3)cc21 (racemic) [Compound I-19, (±)-5-Benzyl-N-(1-methyl-2-oxo-8-(pyridin-4-ylethynyl)-2,3,4,5-tetrahydro-1H-benzo[b]azepin-3-yl)-1H-1,2,4-triazole-3-carboxamide] | 42.7 nM | 10 nM | 3.4 nM |
| CN1C(=O)[C@@H](NC(=O)c2ccn(Cc3ccccc3)n2)CCc2ccc(N3CC4(CCOCC4)C3)cc21 [Compound I-32, (S)-1-Benzyl-N-(1-methyl-2-oxo-8-(7-oxa-2-azaspiro[3.5]nonan-2-yl)-2,3,4,5-tetrahydro-1H-benzo[b]azepin-3-yl)-1H-pyrazole-3-carboxamide] | 38.8 nM | 182 nM | 2.7 nM |
| CN1CCN(C(C)(C)C#Cc2ccc3c(c2)N(C)C(=O)[C@@H](NC(=O)c2cc(Oc4ccccc4)ccn2)CC3)CC1 [Compound I-37, (S)—N-(1-Methyl-8-(3-methyl-3-(4-methylpiperazin-1-yl)but-1-yn-1-yl)-2-oxo-2,3,4,5-tetrahydro-1H-benzo[b]azepin-3-yl)-4-phenoxypicolinamide] | 12.7 nM | 1940 nM | 21 nM |
| CN1C(=O)C(NC(=O)c2ncn(Cc3c(Cl)cccc3Cl)n2)CCc2ccc(CN3CCN(c4ccncc4)CC3)cc21 (racemic) [Compound I-3, (±)-1-(2,6-Dichlorobenzyl)-N-(1-methyl-2-oxo-8-((4-(pyridin-4-yl)piperazin-1-yl)methyl)-2,3,4,5-tetrahydro-1H-benzo[b]azepin-3-yl)-1H-1,2,4-triazole-3-carboxamide] | 30.7 nM | 2530 nM | 5.8 nM |
| CN1C(=O)C(NC(=O)c2cc(Oc3ccccc3)ccn2)CCc2ccc(N3CC4(CCCCC4)C3)cc21 (racemic) [Compound I-30, (±)-N-(1-Methyl-2-oxo-8-(2-azaspiro[3.5]nonan-2-yl)-2,3,4,5-tetrahydro-1H-benzo[b]azepin-3-yl)-4-phenoxypicolinamide] | 603 nM | 1170 nM | 16.2 nM |
| [2H]C([2H])([2H])N1C(=O)C(NC(=O)c2cc(Oc3ccccc3)ccn2)CCc2ccc(C#CC(C)(C)O)cc21 (racemic) [Compound I-28, (±)-N-(8-(3-Hydroxy-3-methylbut-1-yn-1-yl)-1-(methyl-d)-2-oxo-2,3,4,5-tetrahydro-1H-benzo[b]azepin-3-yl)-4-phenoxypicolinamide] | 32.2 nM | 20.9 nM | 2.4 nM |
| CN1C(=O)C(NC(=O)c2n[nH]c(Cc3ccccc3)n2)CCc2ccc(N3CC4(CCCCC4)C3)cc21 (racemic) [Compound I-12, (±)-5-Benzyl-N-(1-methyl-2-oxo-8-(2-azaspiro[3.5]nonan-2-yl)-2,3,4,5-tetrahydro-1H-benzo[b]azepin-3-yl)-1H-1,2,4-triazole-3-carboxamide] | 444 nM | 43.2 nM | 5.2 nM |
| CN1C(=O)[C@@H](NC(=O)n2cc(Cc3ccc(F)cc3)cn2)CCc2ccc(C#CC3(O)CCOCC3)cc21 [Compound I-34, (S)-4-(4-Fluorobenzyl)-N-(8-((4-hydroxytetrahydro-2H-pyran-4-yl)ethynyl)-1-methyl-2-oxo-2,3,4,5-tetrahydro-1H-benzo[b]azepin-3-yl)-1H-pyrazole-1-carboxamide] | 26 nM | 5.9 nM | 0.4 nM |
